Test results reported in PubChem BioAssay (NCI).
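Dose response: 5 concentrations. Exposure: 48 h. Format: 96-well plates. Endpoint: linear interpolation; highest concentration if not reached. At the GI50, growth is halved. At the TGI there is no net growth.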

Legend:
Experiment in all cases: NCI-60 cell line screen, 48 h
HOP-62 NSCLC = test system: HOP-62 NSCLC
TK-10 renal = test system: TK-10 renal
IGROV1 ovarian = test system: IGROV1 ovarian
OVCAR-5 ovarian = test system: OVCAR-5 ovarian
M14 melanoma = test system: M14 melanoma
HCT-15 colon = test system: HCT-15 colon
HOP-92 NSCLC = test system: HOP-92 NSCLC
BT-549 breast = test system: BT-549 breast
ACHN renal = test system: ACHN renal
OVCAR-3 ovarian = test system: OVCAR-3 ovarian

Structure (SMILES)	TGI (HOP-62 NSCLC)	TGI (TK-10 renal)	TGI (IGROV1 ovarian)	TGI (OVCAR-5 ovarian)	TGI (M14 melanoma)	TGI (HCT-15 colon)	TGI (HOP-92 NSCLC)	TGI (BT-549 breast)	TGI (ACHN renal)	TGI (OVCAR-3 ovarian)	GI50 (IGROV1 ovarian)	GI50 (HCT-15 colon)	GI50 (HOP-92 NSCLC)	GI50 (BT-549 breast)	GI50 (ACHN renal)
CC1(C)OC2OC(C(=O)c3ccccc3)C3OC(C)(C)OC3C2O1 (stereo not given)	> 100 µM	> 100 µM	> 100 µM	> 100 µM	> 100 µM	> 100 µM	> 100 µM	> 100 µM	> 100 µM	> 100 µM					
O=C1c2ccccc2C(=O)c2c(NCC3CO3)cccc21 (stereo not given)	> 100 µM	> 100 µM	> 60.3 µM	> 100 µM	27.6 µM	32 µM	> 100 µM	66.8 µM	31.4 µM	> 45.8 µM					
CCOC(=O)[C@H](CO)Nc1c(O)c2c(c(O)c1Cl)C(=O)C=CC2=O	> 10 µM	> 10 µM	> 10 µM	> 10 µM	> 10 µM	> 10 µM	> 10 µM	> 10 µM	> 10 µM	> 10 µM					
COc1cc(/C=C/c2ccc(S(N)(=O)=O)cc2)cc(OC)c1	62.7 µM	53.9 µM	45.5 µM	> 100 µM	> 100 µM	53.5 µM	43.9 µM	41.1 µM	66.3 µM	33.2 µM	23.1 µM	17.4 µM	15 µM	10.7 µM	23.5 µM
CN(C)C=Nc1c2c(nc3ccccc13)CCCC2	> 100 µM	> 100 µM	> 100 µM	> 100 µM	> 100 µM	> 100 µM	> 100 µM	> 100 µM	> 100 µM	> 100 µM					
N#Cc1c(O)c(C=O)c(=O)n2c1[nH]c1ccccc12	> 100 µM	> 100 µM	> 100 µM	> 100 µM	> 100 µM	> 100 µM	> 100 µM	> 100 µM	> 100 µM	> 100 µM					
C=C(C)[C@@H]1CCC2=C(CC[C@]3(C)[C@@H]([C@@H](CCC=C(C)C)C(=O)O)[C@H](O)C[C@@]23C)[C@@]1(C)CCC(=O)O	> 100 µM	> 100 µM	> 100 µM	> 100 µM	> 100 µM	> 100 µM	> 100 µM	> 100 µM	> 100 µM	> 100 µM					
CC1(C)OC2[C@@H](CO[C@@]3([C@H]4OC(C)(C)O[C@@H]4CO)OC(C)(C)O[C@@H]23)O1 (stereo not given in full)	> 100 µM	> 100 µM	> 100 µM	> 100 µM	> 100 µM	> 100 µM	> 100 µM	> 100 µM	> 100 µM	> 100 µM					
COc1cc2c(cc1OC)-c1[nH]c3ccc([N+](=O)[O-])cc3c1CC(=O)N2	9.81 µM	8.92 µM	> 100 µM	> 83.2 µM	> 100 µM	> 100 µM	> 100 µM	> 100 µM	6.2 µM	1.61 µM					
CON(C(=O)OC(C)(C)C)c1ccccc1	> 100 µM	> 100 µM	> 100 µM	> 100 µM	> 100 µM	> 100 µM	> 100 µM	> 100 µM	> 100 µM	> 100 µM					
CCc1n[nH]c(=O)n1N=C(c1ccccc1)c1ccccc1	> 100 µM	> 100 µM	> 100 µM	> 100 µM	> 100 µM	> 100 µM	> 100 µM	> 100 µM	> 100 µM	> 100 µM					
CC(=O)CC12NC(=O)N(C)N=C1N(C)C(=O)N(C)C2=O (stereo not given)	> 100 µM	> 100 µM	> 100 µM	> 100 µM	> 100 µM	> 100 µM	> 100 µM	> 100 µM	> 100 µM	> 100 µM					
CC(=O)OC12OC(C)(C3C(=O)N(c4ccccc4)C(=O)C31)N(c1ccccc1)C2=O (stereo not given)	> 100 µM	> 100 µM	> 100 µM	> 100 µM	> 100 µM	> 100 µM	> 100 µM	> 100 µM	> 100 µM	> 100 µM					
O=C1C(c2c(O)[nH]c3ccc(I)cc23)=Nc2ccccc21	30 µM	17.9 µM	9.24 µM	57.1 µM	> 100 µM	> 100 µM	12.4 µM	29.2 µM	11.8 µM	29.2 µM					
COc1ccc(C=NCCCN=Cc2ccc(OC)cc2O)c(O)c1	> 100 µM	> 100 µM	> 100 µM	> 100 µM	> 100 µM	> 100 µM	68.8 µM	> 100 µM	> 100 µM	51.2 µM					
NCCN(CCN)/[N+]([O-])=N/O	> 100 µM	> 100 µM	> 100 µM	> 100 µM	> 100 µM	> 100 µM	> 100 µM	> 100 µM	> 100 µM	> 100 µM					
